{"source": "patent EP0209707A2", "about": "“2-Aryl imidazoles, pharmaceutical compositions containing them and process for their preparation” (Dr. Karl Thomae GmbH, priority 1985, dated 1987)", "key": {"[1]": {"tested_on": "narkotisierten Katze", "assay": "Blood pressure effect and positive inotropic effect in the anaesthetised cat", "assay_type": "in vivo", "conditions": "arterial pressure in Aorta abdominalis", "experimental": "1. Bestimmung der Blutdruckwirkung und der positiv inotropen Wirkung an der narkotisierten Katze\nDie Untersuchungen wurden an Katzen durchgeführte die mit Pentobarbital-Natrium (40 mg/kg i.p.) narkotisiert waren. Die Tiere atmeten spontan. Der arterielle Blutdruck wurde in der Aorta abdominalis mit einem Statham-Druckwandler (P 23 Dc) gemessen. Für die Erfassung der positiv inotropen Wirkung wurde mit einem Kathetertipmanometer (Millar PC-350 A) der Druck in der linken Herzkammer gemessen. Daraus wurde der Kontraktilitätsparameter dp/dtmax mittels eines Analogdifferenzierers gewonnen. Die zu untersuchenden Substanzen wurden in eine Vena femoralis injiziert. Als Lösungsmittel diente Polydiol 200. Jede Substanz wurde an mindestens 2 Katzen geprüft.\nDie nachfolgende Tabelle enthält die gefundenen Mittelwerte: […]"}, "[2]": {"tested_on": "Thrombozytenaggregation in plättchenreichem Plasma gesunder Versuchspersonen", "assay": "Collagen-induced platelet aggregation (Born and Cross) in platelet-rich plasma", "assay_type": "cell-based", "conditions": "10 min, 50% change of optical density, plasma incubated 10 min with substance at 37°C", "from_the_text": "Die Thrombozytenaggregation wird nach der Methode von BORN und CROSS (J. Physiol. 170, 397 (1964)) in plättchenreichem Plasma gesunder Versuchspersonen gemessen. Zur Gerinnungshemmung wird das Blut mit Natriumcitrat 3,14 % im Volumenverhältnis 1:10 versetzt.\nDer Verlauf der Abnahme der optischen Dichte der Plättchensuspension wird nach Zugabe der aggregationsauslösenden Substanz photometrisch gemessen und registriert. Aus dem Neigungswinkel der Dichtekurve wird auf die Aggregationsgeschwindigkeit geschlossen. Der Punkt der Kurve, bei dem die größte Lichtdurchlässigkeit vorliegt, dient zur Berechnung der \"optical density\".\nDie Collagen-Menge wird möglichst gering gewählt, aber doch so, daß sich eine irreversibel verlaufende Reaktionskurve ergibt. Verwendet wird das handelsübliche Collagen der Firma Hormonchemie, München.\nVor der Collagen-Zugabe wird das Plasma jeweils 10 Minuten mit der Substanz bei 37°C inkubiert.\nAus den erhaltenen Meßzahlen wird graphisch eine EC50 berechnet, die sich auf eine 50%ige Änderung der \"optical density\" im Sinne einer Aggregationshemmung bezieht."}, "[3]": {"conditions": "second value of the printed pair (presumably diastolic), 1 mg/kg i.v."}}}
{"smiles": "COc1cc(NS(C)(=O)=O)ccc1-c1nc2ccc(C#N)cc2[nH]1", "note": "[D, 5-Cyano-2-(4'-methansulfonylamino-2'-methoxy-phenyl)-benzimidazol]", "values": [{"measurement": "Blutdruck senkung in mm Hg", "setting": "[1]; second value of the printed pair (presumably diastolic), 0,6 mg/kg i.v.", "value": -27, "unit": "mm Hg"}]}
{"smiles": "COc1cc([S+](C)[O-])ccc1-c1nc2ccc(C(C)=O)cc2[nH]1", "note": "(centres unmarked) [B, 2-(2'-Methoxy-4'-methylsulfinyl-phenyl)-5-acetyl-benzimidazol]", "values": [{"measurement": "EC50", "setting": "[2]", "value": 8.2, "unit": "µM"}, {"measurement": "Blutdruck senkung in mm Hg", "setting": "[1]; [3]", "value": -28, "unit": "mm Hg"}]}
{"smiles": "COc1cc(S(C)(=O)=NC(C)=O)ccc1-c1nc2cc(C#N)ccc2[nH]1", "note": "(centres unmarked) [A, 2-[2'-Methoxy-4'-(N-acetyl-methylsulfoximino-phenyl)]-5-cyano-benzimidazol]", "values": [{"measurement": "EC50", "setting": "[2]", "value": 5.3, "unit": "µM"}, {"measurement": "Blutdruck senkung in mm Hg", "setting": "[1]; [3]", "value": -20, "unit": "mm Hg"}]}
{"smiles": "COC(=O)Nc1ccc(-c2nc3cnccc3[nH]2)c(OC)c1", "note": "[E, 2-(2'-Methoxy-4'-methoxycarbonylamino-phenyl)-imidazo-[4,5-c]pyridin]", "values": [{"measurement": "Blutdruck senkung in mm Hg", "setting": "[1]; second value of the printed pair (presumably diastolic), 2 mg/kg i.v.", "value": -12, "unit": "mm Hg"}]}
{"smiles": "COc1cc(S(C)(=O)=O)ccc1-c1nc2ccc(C(C)=O)cc2[nH]1", "note": "[C, 2-(2'-Methoxy-4'-methylsulfonyl-phenyl)-5-acetyl-benzimidazol]", "values": [{"measurement": "EC50", "setting": "[2]", "value": 8, "unit": "µM"}, {"measurement": "Blutdruck senkung in mm Hg", "setting": "[1]; [3]", "value": -24, "unit": "mm Hg"}]}
